Laboratory results: US5336768A, “Antibacterial cephalosporin compounds” (Hoffmann-La Roche Inc., priority 1988, dated 1994)
Where a name gives a salt, the structure may show the parent alone. Read-outs that look alike come from different tables or passages of the source.

Assays:
Assay in all cases: In vitro MIC, Agar Dilution Method
Type in all cases: cell-based
Cit. freundii BS-16 = conditions: Citrobacter freundii, BS16
Source text: (§1) The in vitro activity of the compounds of the present invention as measured by the Minimum Inhibitory Concentration (MIC) in micrograms/ml utilizing the Agar Dilution Method against a variety of Gram-positive and Gram-negative organisms, is as follows: […]

E. coli 257 = conditions: Escherichia coli
Source text: as §1

E. coli ATCC 25922 = conditions: Escherichia coli, ATCC25922
Source text: as §1

E. coli TEM-1 = conditions: Escherichia coli, TEM1, read-out: In Vitro MIC
Source text: as §1

Enter. cloacae 5699 = conditions: Enterobacter cloacae
Source text: as §1

Enter. cloacae P99 = conditions: Enterobacter cloacae
Source text: as §1

K. pneumoniae A = conditions: Klebsiella pneumoniae, read-out: In Vitro MIC
Source text: as §1

Prot. Vulqaris 1028 BC = conditions: read-out: In Vitro MIC
Source text: as §1

Prot. mirabilis 90 = test system: Prot. mirabilis 90
Source text: as §1

Prot. vulgaris ATCC 6380 = conditions: Proteus vulgaris
Source text: as §1

Ps. aeruginosa 18SH = conditions: Pseudomonas aeruginosa, read-out: In Vitro MIC
Source text: as §1

Ps. aeruginosa 5712 = conditions: Pseudomonas aeruginosa
Source text: as §1

Ps. aeruginosa 765 = test system: Ps. aeruginosa 765
Source text: as §1

Ps. aeruginosa 8780 = conditions: Pseudomonas aeruginosa
Source text: as §1

[1] = test system: Ps. aeruginosa ATCC 27853; conditions: Pseudomonas aeruginosa
Source text: as §1

Ser. marcescens 1071 = conditions: Serratia marcescens
Source text: as §1

Ser. marcescens SM = conditions: Serratia marcescens, read-out: In Vitro MIC
Source text: as §1

Staph. aureus 10598 = test system: Staph. aureus 10598
Source text: as §1

Staph. aureus 67 = conditions: Staphylococcus aureus
Source text: as §1

Staph. aureus 753 = test system: Staph. aureus 753
Source text: as §1

Staph. aureus ATCC 29213 = conditions: Staphylococcus aureus
Source text: as §1

Staph. aureus Smith = conditions: Staphylococcus aureus, read-out: In Vitro MIC
Source text: as §1

Str. faecalis ATCC 29212 = conditions: Enterococcus faecalis, ATCC29212
Source text: as §1

Str. pneumoniae 6301 = conditions: Streptococcus pneumoniae
Source text: as §1

Str. pyogenes 4 = conditions: Streptococcus pyogenes
Source text: as §1

Row | SMILES | MIC (Cit. freundii BS-16) | MIC (E. coli 257) | MIC (E. coli ATCC 25922) | MIC (E. coli TEM-1) | MIC (Enter. cloacae 5699) | MIC (Enter. cloacae P99) | MIC (Ps. aeruginosa 5712) | MIC (Ps. aeruginosa 8780) | MIC (Ser. marcescens 1071) | MIC (Staph. aureus 67) | MIC (Str. faecalis ATCC 29212) | MIC (Str. pneumoniae 6301) | MIC (Str. pyogenes 4) | also measured
1 | CO/N=C(\C(=O)N[C@@H]1C(=O)N2C(C(=O)O)=C(COC(=O)N3CCN(c4cc5c(cc4F)c(=O)c(C(=O)O)cn5C4CC4)CC3)CS[C@H]12)c1csc(N)n1 [Compound B, [6R-[6α,7β(Z)]]-7-[[(2-amino-4-thiazolyl) (methoxyimino)acetyl]amino]-3-[[[[4-(3-carboxy-1-cyclopropyl-6-fluoro-1,4-dihydro-4-oxo-7-quinolinyl)-1-piperazinyl]carbonyl]oxy]methyl]-8-oxo-5-thia-1-azabicyclo[4.2.0]oct-2-ene-2-carboxylic acid sodium salt] | 0.125 µg/mL | 0.0625 µg/mL | 0.0625 µg/mL | 0.0625 µg/mL | 0.125 µg/mL | 0.0313 µg/mL | 4 µg/mL | 2 µg/mL | 0.25 µg/mL | 2 µg/mL | 0.25 µg/mL | 0.0157 µg/mL | 0.0157 µg/mL | MIC (K. pneumoniae A): 0.0625 µg/mL; MIC (Prot. Vulqaris 1028 BC): 0.0625 µg/mL; MIC (Prot. mirabilis 90; Proteus mirabilis, Prot. mirabilis 90, Agar Dilution Method, read-out: In Vitro MIC): 0.25 µg/mL; MIC (Prot. vulgaris ATCC 6380; ATCC6380, read-out: In Vitro MIC): 0.0625 µg/mL; MIC (Ps. aeruginosa 18SH; 18SH): 1 µg/mL; MIC (Ps. aeruginosa 765; Pseudomonas aeruginosa, 765, read-out: In Vitro MIC): 1 µg/mL; MIC ([1]; ATCC27853, read-out: In Vitro MIC): 1 µg/mL; MIC (Ser. marcescens SM; Ser. marcescens SM, Agar Dilution Method): 0.125 µg/mL; MIC (Staph. aureus 10598; Staphylococcus aureus, 10598, read-out: In Vitro MIC): 1 µg/mL; MIC (Staph. aureus 753; Staphylococcus aureus, 753, read-out: In Vitro MIC): 1 µg/mL; MIC (Staph. aureus ATCC 29213; ATCC29213, read-out: In Vitro MIC): 1 µg/mL; MIC (Staph. aureus Smith): 0.5 µg/mL
2 | CCn1cc(C(=O)O)c(=O)c2cc(F)c(N3CCN(C(=O)OCC4=C(C(=O)O)N5C(=O)[C@@H](NC(=O)/C(=N\OC)c6csc(N)n6)[C@H]5SC4)CC3)cc21 [Compound A, [6R-[6α,7β(Z)]]-7-[[(2-amino-4-thiazolyl) (methoxyimino)acetyl]amino]-3-[[[[4-(3-carboxy-1-ethyl-6-fluoro-1,4-dihydro-4-oxo-7-quinolinyl) -1-piperazinyl]carbonyl]oxy]methyl]-8-oxo-5-thia-1-azabicyclo[4.2.0]oct-2-ene-2-carboxylic acid sodium salt] | 0.5 µg/mL | 0.25 µg/mL | 0.25 µg/mL | 0.25 µg/mL | 0.5 µg/mL | 0.5 µg/mL | 16 µg/mL | 4 µg/mL | 0.5 µg/mL | 4 µg/mL | 0.5 µg/mL | 0.0157 µg/mL | 0.0157 µg/mL | MIC (K. pneumoniae A; K. pneumoniae A, Agar Dilution Method): 0.5 µg/mL; MIC (Prot. Vulqaris 1028 BC; Prot. Vulqaris 1028 BC, Agar Dilution Method): 0.125 µg/mL; MIC (Prot. mirabilis 90; Proteus mirabilis, 90, read-out: In Vitro MIC): 0.25 µg/mL; MIC (Prot. vulgaris ATCC 6380; ATCC6380, Prot. vulgaris ATCC 6380, Agar Dilution Method, read-out: In Vitro MIC): 0.0625 µg/mL; MIC (Ps. aeruginosa 18SH; Ps. aeruginosa 18SH, Agar Dilution Method): 4 µg/mL; MIC (Ps. aeruginosa 765; Pseudomonas aeruginosa, Ps. aeruginosa 765, Agar Dilution Method, read-out: In Vitro MIC): 8 µg/mL; MIC ([1]; ATCC27853, Ps. aeruginosa ATCC 27853, Agar Dilution Method, read-out: In Vitro MIC): 8 µg/mL; MIC (Ser. marcescens SM): 0.25 µg/mL; MIC (Staph. aureus 10598; Staphylococcus aureus, Staph. aureus 10598, Agar Dilution Method, read-out: In Vitro MIC): 2 µg/mL; MIC (Staph. aureus 753; Staphylococcus aureus, Staph. aureus 753, Agar Dilution Method, read-out: In Vitro MIC): 4 µg/mL; MIC (Staph. aureus ATCC 29213; ATCC29213, Staph. aureus ATCC 29213, Agar Dilution Method, read-out: In Vitro MIC): 2 µg/mL; MIC (Staph. aureus Smith; Staph. aureus Smith, Agar Dilution Method): 1 µg/mL
